Source: patent publication US20240059703A1 (AMGEN INC., priority 2021, published 2024)

These molecules were tested against KRAS G12C (Homo sapiens (Human), UniProt P01116, C118A/G12C) (assay: 2 h coupled exchange assay). Details: Avg 2 h Coupled exchange IC50, 2 h compound pre-incubation.
Format: biochemical
Description: The term “2 h coupled exchange assay” or “20 h coupled exchange assay” as used herein refers to the assay described in the Section entitled “BIOLOGICAL EVALUATION.”

Chain of KRAS G12C (P01116 other isoform, or with tags, fused parts or gaps G12C/C118A): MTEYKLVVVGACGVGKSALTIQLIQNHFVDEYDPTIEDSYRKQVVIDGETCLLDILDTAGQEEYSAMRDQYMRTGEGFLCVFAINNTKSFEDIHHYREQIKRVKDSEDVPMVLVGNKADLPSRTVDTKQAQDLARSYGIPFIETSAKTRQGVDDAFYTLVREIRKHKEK

Compared with `C=CC(=O)N1CC2(CCN(c3nc4c(c(-c5c(C)ccc6[nH]ncc56)c3C)COC(C)(C)C4)C2)C1` (single isomer, unassigned) [Example 14-34, (M)-1-(6-(3,7,7-trimethyl-4-(5-methyl-1H-indazol-4-yl)-7,8-dihydro-5H-pyrano[4,3-b]pyridin-2-yl)-2,6-diazaspiro[3.4]octan-2-yl)-2-propen-1-one], `C=CC(=O)N1CC2(CCN(c3nc4c(c(-c5ccc(F)c6sc(N)nc56)c3C)COC(C)(C)C4)C2)C1` [Example 14-27, 1-(6-(4-(2-amino-7-fluoro-1,3-benzothiazol-4-yl)-3,7,7-trimethyl-7,8-dihydro-5H-pyrano[4,3-b]pyridin-2-yl)-2,6-diazaspiro[3.4]octan-2-yl)-2-propen-1-one] is 46-fold lower in IC50: 7590 nM for the first, 164 nM for the second.

Compared with `C=CC(=O)N1CC2(CCN(c3nc4cc(-c5ccnn5C)ccc4c(-c4cccc(F)c4Cl)c3C)C2)C1` [Example 16-7, 1-(6-(4-(2-chloro-3-fluorophenyl)-3-methyl-7-(1-methyl-1H-pyrazol-5-yl)-2-quinolinyl)-2,6-diazaspiro[3.4]octan-2-yl)-2-propen-1-one], `C=CC(=O)N1CC2(CCN(c3nc4cc(-c5ccnn5C)ccc4c(-c4ccccc4Cl)c3C#N)C2C)C1` (centres unmarked) [Example 17-1, 2-(2-acryloyl-5-methyl-2,6-diazaspiro[3.4]octan-6-yl)-4-(2-chlorophenyl)-7-(1-methyl-1H-pyrazol-5-yl)quinoline-3-carbonitrile] is 2.4-fold lower in IC50: 716 nM for the first, 293 nM for the second.

Compared with `C=CC(=O)N1CC2(CCN(c3nc4c(c(-c5cc(O)ccc5C)c3F)C[C@H]3C[C@@H]4C3(C)C)C2)C1` (single isomer, unassigned) [Example 14-60], `C=CC(=O)N1CC2(CCN(c3nc4c(c(-c5ccc(F)c(O)c5)c3C#N)C[C@H]3C[C@@H]4C3(C)C)C2)C1` [Example 14-49, (1R,9R)-6-(4-fluoro-3-hydroxyphenyl)-10,10-dimethyl-4-(2-(2-propenoyl)-2,6-diazaspiro[3.4]octan-6-yl)-3-azatricyclo[7.1.1.0^2,7]undeca-2,4,6-triene-5-carbonitrile] is 4.3-fold lower in IC50: 3350 nM for the first, 776 nM for the second.

Same assay, conditions: Avg 2 h Coupled exchange IC50, 2 h compound pre-incubation, SOS-mediated nucleotide exchange

First: C=CC(=O)N1CC2(CCN(c3nc4c(c(-c5c(C)ccc6cnn(C)c56)c3C#N)C[C@H]3C[C@@H]4C3)[C@H]2C)C1 (single isomer, unassigned) [Example 13-32]
Second: C=CC(=O)N1CC2(CCN(c3nc4c(c(-c5c(C)ccc6cnn(C)c56)c3C#N)CCC3CC43)C2CO)C1 (centres unmarked) [Example 13-63]
The IC50 of the first is 450-fold higher: 64900 nM for the first, 145 nM for the second.

Going from `C=CC(=O)N1CC2(CCN(c3nc4c(c(-c5c(C)ccc6cnn(C)c56)c3C#N)COC4(C)C)C2)C1` (single isomer, unassigned) [Example 13-57, (M)-4-(1,6-dimethyl-1H-indazol-7-yl)-7,7-dimethyl-2-(2-(2-propenoyl)-2,6-diazaspiro[3.4]octan-6-yl)-5,7-dihydrofuro[3,4-b]pridine-3-carbonitrile] to `C=CC(=O)N1CC2(CCN(c3nc4c(c(-c5c(C)ccc6cnn(C)c56)c3C#N)CNC(C)(C)C4)C2)C1` [Example 13-138, 4-(1,6-dimethyl-1H-indazol-7-yl)-7,7-dimethyl-2-(2-(2-propenoyl)-2,6-diazaspiro[3.4]octan-6-yl)-5,6,7,8-tetrahydro-1,6-naphthyridine-3-carbonitrile], the IC50 rises from 361 nM to 641 nM (1.8-fold). The first is the more potent here.

Compared with `C=CC(=O)N1CC2(CCN(c3nc4c(c(-c5cccc6cc(N)ncc56)c3C#N)COC(C)(C)C4)C2)C1` [Example 12-17, 4-(3-amino-8-isoquinolinyl)-7,7-dimethyl-2-(2-(2-propenoyl)-2,6-diazaspiro[3.4]octan-6-yl)-7,8-dihydro-5H-pyrano[4,3-b]pyridine-3-carbonitrile], `C=CC(=O)N1CC2(CCN(c3nc4c(c(-c5cccc6ccc(O)cc56)c3C#N)COC(C)(C)C4)C2)C1` [Example 12-32, 4-(7-hydroxy-1-naphthalenyl)-7,7-dimethyl-2-(2-(2-propenoyl)-2,6-diazaspiro[3.4]octan-6-yl)-7,8-dihydro-5H-pyrano[4,3-b]pyridine-3-carbonitrile] is 3.9-fold higher in IC50: 132 nM for the first, 515 nM for the second.

Compared with `C=CC(=O)N1CC2(CCN(c3nc4c(c(-c5c(C)ccc6cnn(C)c56)c3Cl)COC(C)(C)C4)C2)C1` (single isomer, unassigned) [Example 2-88, (P)-1-(6-(3-chloro-4-(1,6-dimethyl-1H-indazol-7-yl)-7,7-dimethyl-7,8-dihydro-5H-pyrano[4,3-b]pyridin-2-yl)-2,6-diazaspiro[3.4]octan-2-yl)-2-propen-1-one], `C=CC(=O)N1CC2(CCN(c3nc4c(c(-c5cc(Cl)cc6cnn(C)c56)c3C)COC(C)(C)C4)C2)C1` [Example 2-32, 1-(6-(4-(5-chloro-1-methyl-1H-indazol-7-yl)-3,7,7-trimethyl-7,8-dihydro-5H-pyrano[4,3-b]pyridin-2-yl)-2,6-diazaspiro[3.4]octan-2-yl)-2-propen-1-one] is 5.9-fold lower in IC50: 4730 nM for the first, 808 nM for the second. The second is the more potent here.

Going from `C=CC(=O)N1CC2(CCN(c3nc4ccccc4c(-c4c(C)ccc5[nH]ncc45)c3C)C2)C1` [Example 8, 1-(6-(3-Methyl-4-(5-methyl-1H-indazol-4-yl)quinolin-2-yl)-2,6-diazaspiro[3.4]octan-2-yl)prop-2-en-1-one] to `C=CC(=O)N1CC2(CCN(c3nc4cc(F)ccc4c(-c4c(C)ccc5[nH]ncc45)c3C)[C@@H]2C)C1` (single isomer, unassigned) [Example 2-59], the IC50 rises from 1270 nM to 14900 nM (12-fold). The first is the more potent here.

`C=CC(=O)N1CC2(CCN(c3nc4c(c(-c5cc(Cl)cc6ccn(C)c56)c3C#N)COC(C)(C)C4)C2)C1` [Example 12-8, 4-(5-chloro-1-methyl-1H-indol-7-yl)-7,7-dimethyl-2-(2-(2-propenoyl)-2,6-diazaspiro[3.4]octan-6-yl)-7,8-dihydro-5H-pyrano[4,3-b]pyridine-3-carbonitrile] and `C=CC(=O)N1CC2(CCN(c3nc4c(c(-c5cccc6c(O)cccc56)c3C#N)COC(C)(C)C4)C2)C1` [Example 12-33, 4-(5-hydroxy-1-naphthalenyl)-7,7-dimethyl-2-(2-(2-propenoyl)-2,6-diazaspiro[3.4]octan-6-yl)-7,8-dihydro-5H-pyrano[4,3-b]pyridine-3-carbonitrile] are within 1.5-fold of each other in IC50: 399 nM for the first, 527 nM for the second.

Going from `C=CC(=O)N1CC2(CCN(c3nc4c(c(-c5c(F)cccc5[C@@H](C)O)c3C#N)C[C@H]3C[C@@H]4C3(C)C)C2)C1` (single isomer, unassigned) [Example 12-37] to `C=CC(=O)N1CC2(CCN(c3nc4c(c(-c5cccc6cc(C(F)(F)F)[nH]c56)c3C#N)C[C@H]3C[C@@H]4C3(C)C)C2)C1` [Example 12-27, (1R,9R)-10,10-dimethyl-4-(2-(2-propenoyl)-2,6-diazaspiro[3.4]octan-6-yl)-6-(2-(trifluoromethyl)-1H-indol-7-yl)-3-azatricyclo[7.1.1.0^2,7] undeca-2,4,6-triene-5-carbonitrile], the IC50 falls from 1440 nM to 476 nM (3-fold). The second is the more potent here.

Compared with `C=CC(=O)N1CC2(CCN(c3nc4c(c(-c5cc(O)c(F)c6ccccc56)c3C#N)CC[C@H]3C[C@@H]43)C2)C1` (single isomer, unassigned) [Example 13-73], `C=CC(=O)N1CC2(CCN(c3nc4c(c(-c5c(C)ccc6cnn(C)c56)c3C#N)CC[C@@H]3C[C@H]43)C2)C1` (single isomer, unassigned) [Example 13-134, (6a,7a)-4-(1,6-dimethyl-1H-indazol-7-yl)-2-(2-(2-propenoyl)-2,6-diazaspiro[3.4]octan-6-yl)-6,6a,7,7a-tetrahydro-5H-cyclopropa[h]quinoline-3-carbonitrile] is 2-fold higher in IC50: 19300 nM for the first, 39300 nM for the second. The first is the more potent here.

Going from `C=CC(=O)N1CC2(CCN(c3nc4c(c(-c5ccccc5F)c3C#N)CCCC4)C2)C1` [Example 2-7, 4-(2-fluorophenyl)-2-(2-(2-propenoyl)-2,6-diazaspiro[3.4]octan-6-yl)-5,6,7,8-tetrahydro-3-quinolinecarbonitrile] to `C=CC(=O)N1CC2(CCN(c3nc4c(c(-c5ccnn5C)c3C#N)CC[C@@H](c3ccnn3C)C4)C2)C1` (single isomer, unassigned) [Example 13-29], the IC50 falls from 2020 nM to 217 nM (9.3-fold). The second is the more potent here.

Going from `C=CC(=O)N1CC2(CCN(c3nc4c(c(-c5c(C)ccc6[nH]ncc56)c3Cl)COC(C)(C)C4)C2)C1` (single isomer, unassigned) [Example 2-84, (P)-1-(6-(3-chloro-7,7-dimethyl-4-(5-methyl-1H-indazol-4-yl)-7,8-dihydro-5H-pyrano[4,3-b]pyridin-2-yl)-2,6-diazaspiro[3.4]octan-2-yl)-2-propen-1-one] to `C=CC(=O)N1CC2(CCN(c3nc4ccccc4c(-c4c(C)ccc5[nH]ncc45)c3C)C2)C1` (single isomer, unassigned) [Example 2-56, (M)-1-(6-(3-methyl-4-(5-methyl-1H-indazol-4-yl)-2-quinolinyl)-2,6-diazaspiro[3.4]octan-2-yl)-2-propen-1-one], the IC50 rises from 808 nM to 43600 nM (54-fold). The first is the more potent here.

Compared with `C=CC(=O)N1CC2(CCN(c3nc4c(c(-c5c(C)ccc6cnn(C)c56)c3C#N)[C@H]3C[C@@H](C4)C3)C2)C1` [Example 13-131, (1S,9S)-3-(1,6-dimethyl-1H-indazol-7-yl)-5-(2-(2-propenoyl)-2,6-diazaspiro[3.4]octan-6-yl)-6-azatricyclo[7.1.1.0^2,7]undeca-2,4,6-triene-4-carbonitrile], `C=CC(=O)N1CC2(CCN(c3nc4c(c(-c5c(C)ccc6[nH]ncc56)c3Cl)COC(C)(C)C4)C2)C1` (single isomer, unassigned) [Example 2-85, (M)-1-(6-(3-chloro-7,7-dimethyl-4-(5-methyl-1H-indazol-4-yl)-7,8-dihydro-5H-pyrano[4,3-b]pyridin-2-yl)-2,6-diazaspiro[3.4]octan-2-yl)-2-propen-1-one] is 120-fold higher in IC50: 101 nM for the first, 12600 nM for the second. The first is the more potent here.

`C=CC(=O)N1CC2(CCN(c3nc4c(c(-c5cc(O)cc(C(F)(F)F)c5F)c3C)CCC(C)(C)C4)C2)C1` [Example 2-22, 1-(6-(4-(2-fluoro-5-hydroxy-3-(trifluoromethyl)phenyl)-3,7,7-trimethyl-5,6,7,8-tetrahydro-2-quinolinyl)-2,6-diazaspiro[3.4]octan-2-yl)-2-propen-1-one] showed an IC50 of 846 nM.
